Values quoted from earlier work in patent US8273880B2, “Pyrazole compounds with inhibitory activity against ROS kinase” (Korea Institute of Science and Technology, priority 2009, dated 2012).

Molecular target: ROS kinase (Homo sapiens, UniProt P08922)
Parameters: literature Reaction Biology Corporation
Conditions: Data from Reaction Biology corporation (website); read-out: Inhibitory Activity against ROS (IC50); cited from earlier work

Chain of ROS kinase (P08922 28-2347): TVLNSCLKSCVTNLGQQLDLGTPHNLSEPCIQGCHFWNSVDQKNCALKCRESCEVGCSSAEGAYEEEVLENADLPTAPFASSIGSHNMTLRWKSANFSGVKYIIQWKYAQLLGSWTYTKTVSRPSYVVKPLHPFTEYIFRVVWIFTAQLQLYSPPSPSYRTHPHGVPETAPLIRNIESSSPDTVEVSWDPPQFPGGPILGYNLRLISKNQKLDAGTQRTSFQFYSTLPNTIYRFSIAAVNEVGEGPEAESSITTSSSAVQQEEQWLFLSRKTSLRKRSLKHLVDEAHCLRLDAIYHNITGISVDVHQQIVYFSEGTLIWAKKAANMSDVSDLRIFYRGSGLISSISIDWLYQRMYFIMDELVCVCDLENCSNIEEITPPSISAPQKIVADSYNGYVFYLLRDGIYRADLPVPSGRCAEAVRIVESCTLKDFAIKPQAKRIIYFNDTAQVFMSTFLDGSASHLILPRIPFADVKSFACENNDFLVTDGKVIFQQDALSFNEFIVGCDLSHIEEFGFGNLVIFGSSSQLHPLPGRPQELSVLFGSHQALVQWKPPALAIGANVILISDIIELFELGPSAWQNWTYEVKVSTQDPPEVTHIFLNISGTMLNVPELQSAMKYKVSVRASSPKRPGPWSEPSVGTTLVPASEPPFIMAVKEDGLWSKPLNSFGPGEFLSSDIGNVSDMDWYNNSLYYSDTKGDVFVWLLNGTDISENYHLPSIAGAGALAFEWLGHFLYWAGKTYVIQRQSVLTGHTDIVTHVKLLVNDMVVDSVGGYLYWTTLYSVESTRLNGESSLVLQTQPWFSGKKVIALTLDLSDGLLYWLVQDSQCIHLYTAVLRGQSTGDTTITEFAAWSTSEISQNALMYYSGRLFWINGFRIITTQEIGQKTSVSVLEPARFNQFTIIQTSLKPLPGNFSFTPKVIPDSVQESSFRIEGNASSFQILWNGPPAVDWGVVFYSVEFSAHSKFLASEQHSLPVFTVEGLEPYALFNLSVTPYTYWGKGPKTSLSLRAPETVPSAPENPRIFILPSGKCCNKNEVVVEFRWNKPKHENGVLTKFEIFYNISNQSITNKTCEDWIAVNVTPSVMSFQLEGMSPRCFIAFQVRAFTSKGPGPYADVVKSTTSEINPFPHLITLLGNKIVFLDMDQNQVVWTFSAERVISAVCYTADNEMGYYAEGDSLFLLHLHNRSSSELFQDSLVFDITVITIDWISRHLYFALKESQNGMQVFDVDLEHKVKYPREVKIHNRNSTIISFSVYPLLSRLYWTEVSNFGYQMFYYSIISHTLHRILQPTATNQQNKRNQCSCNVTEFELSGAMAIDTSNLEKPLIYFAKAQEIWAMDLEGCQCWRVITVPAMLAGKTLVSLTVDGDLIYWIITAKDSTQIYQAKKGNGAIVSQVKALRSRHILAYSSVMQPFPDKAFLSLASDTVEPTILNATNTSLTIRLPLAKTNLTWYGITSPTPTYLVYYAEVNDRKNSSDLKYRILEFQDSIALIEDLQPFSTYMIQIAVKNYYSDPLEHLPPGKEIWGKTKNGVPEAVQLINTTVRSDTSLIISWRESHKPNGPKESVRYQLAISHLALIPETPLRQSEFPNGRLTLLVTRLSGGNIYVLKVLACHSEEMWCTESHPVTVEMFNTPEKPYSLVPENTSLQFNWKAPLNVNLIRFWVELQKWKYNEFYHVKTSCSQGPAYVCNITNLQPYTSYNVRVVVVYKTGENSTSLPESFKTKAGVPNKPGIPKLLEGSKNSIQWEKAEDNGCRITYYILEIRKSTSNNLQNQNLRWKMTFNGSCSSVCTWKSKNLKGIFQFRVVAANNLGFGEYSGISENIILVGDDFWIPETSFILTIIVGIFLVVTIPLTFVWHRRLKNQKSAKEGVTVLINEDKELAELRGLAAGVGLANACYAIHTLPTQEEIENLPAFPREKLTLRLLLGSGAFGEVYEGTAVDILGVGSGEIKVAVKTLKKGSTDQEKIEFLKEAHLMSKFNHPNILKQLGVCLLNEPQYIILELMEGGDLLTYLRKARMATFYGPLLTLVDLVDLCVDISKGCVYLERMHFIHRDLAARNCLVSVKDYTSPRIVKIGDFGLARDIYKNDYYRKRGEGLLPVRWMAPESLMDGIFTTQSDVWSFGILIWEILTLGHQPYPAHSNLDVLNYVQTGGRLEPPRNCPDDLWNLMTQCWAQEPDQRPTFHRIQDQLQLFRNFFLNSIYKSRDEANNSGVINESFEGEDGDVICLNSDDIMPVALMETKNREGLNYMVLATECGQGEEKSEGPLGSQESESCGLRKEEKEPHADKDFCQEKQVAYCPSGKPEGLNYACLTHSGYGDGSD

## COc1cc2ncnc(Nc3cccc(Cl)c3)c2cc1OC [AG1478]
  IC50: 13.6 µM
